Experimental data: the NIST ThermoML archive (doi:10.1021/je2006049)
Several values for one entry are separate records, joined by “and”; a condition that tells them apart may be missing. Identical values can stand only once.

Conditions: Liquid; for electrical conductivity / mass density: 101.33 kPa; for electrical conductivity: Alternating current cell with electrodes; for mass density: Vibrating tube method

CCCC[N+]1(C)CCCC1.O=S(=O)([N-]S(=O)(=O)C(F)(F)F)C(F)(F)F
Conditions	viscosity
273.15 K, 100 kPa, Falling or rolling sphere viscometry	319.28 mPa·s and 318.72 mPa·s and 320.44 mPa·s
273.15 K, 101.3 kPa, Concentric cylinders viscometry	322.4 mPa·s
273.15 K, 820 kPa, Falling or rolling sphere viscometry	318.29 mPa·s
273.15 K, 10850 kPa, Falling or rolling sphere viscometry	378.12 mPa·s
273.15 K, 20760 kPa, Falling or rolling sphere viscometry	441.79 mPa·s
273.15 K, 32190 kPa, Falling or rolling sphere viscometry	542.04 mPa·s
273.15 K, 40240 kPa, Falling or rolling sphere viscometry	621.51 mPa·s
273.15 K, 45000 kPa, Falling or rolling sphere viscometry	677.25 mPa·s
273.15 K, 50310 kPa, Falling or rolling sphere viscometry	729.34 mPa·s
273.15 K, 59200 kPa, Falling or rolling sphere viscometry	837.7 mPa·s
273.15 K, 60550 kPa, Falling or rolling sphere viscometry	855.99 mPa·s
273.15 K, 69280 kPa, Falling or rolling sphere viscometry	983.67 mPa·s
273.15 K, 70310 kPa, Falling or rolling sphere viscometry	1008.7 mPa·s
273.15 K, 80520 kPa, Falling or rolling sphere viscometry	1184.8 mPa·s
278.15 K, 100 kPa, Falling or rolling sphere viscometry	224.84 mPa·s and 224.85 mPa·s
278.15 K, 101.3 kPa, Concentric cylinders viscometry	230.9 mPa·s
283.15 K, 100 kPa, Falling or rolling sphere viscometry	167.09 mPa·s [middle of 4 runs]
283.15 K, 101.3 kPa, Concentric cylinders viscometry	170.1 mPa·s
283.15 K, 10140 kPa, Falling or rolling sphere viscometry	192.43 mPa·s
283.15 K, 19970 kPa, Falling or rolling sphere viscometry	222.97 mPa·s
283.15 K, 29990 kPa, Falling or rolling sphere viscometry	259.18 mPa·s
283.15 K, 40620 kPa, Falling or rolling sphere viscometry	303.3 mPa·s
283.15 K, 50520 kPa, Falling or rolling sphere viscometry	350.45 mPa·s
283.15 K, 59770 kPa, Falling or rolling sphere viscometry	398.94 mPa·s
283.15 K, 70190 kPa, Falling or rolling sphere viscometry	463.39 mPa·s
283.15 K, 78710 kPa, Falling or rolling sphere viscometry	517.26 mPa·s
283.15 K, 89720 kPa, Falling or rolling sphere viscometry	620.7 mPa·s
283.15 K, 89960 kPa, Falling or rolling sphere viscometry	604.22 mPa·s
283.15 K, 100390 kPa, Falling or rolling sphere viscometry	708.87 mPa·s and 702.53 mPa·s
288.15 K, 101.3 kPa, Concentric cylinders viscometry	128.4 mPa·s
293.15 K, 100 kPa, Falling or rolling sphere viscometry	99.81 mPa·s and 99.92 mPa·s
293.15 K, 101.3 kPa, Concentric cylinders viscometry	98.95 mPa·s and 99 mPa·s
298.15 K, 100 kPa, Falling or rolling sphere viscometry	76.63 mPa·s [middle of 5 runs]
298.15 K, 101.3 kPa, Concentric cylinders viscometry	77.83 mPa·s
298.15 K, 860 kPa, Falling or rolling sphere viscometry	77.22 mPa·s
298.15 K, 10370 kPa, Falling or rolling sphere viscometry	87.96 mPa·s
298.15 K, 20760 kPa, Falling or rolling sphere viscometry	100.93 mPa·s
298.15 K, 30700 kPa, Falling or rolling sphere viscometry	114.96 mPa·s
298.15 K, 40660 kPa, Falling or rolling sphere viscometry	130.58 mPa·s
298.15 K, 50630 kPa, Falling or rolling sphere viscometry	148.26 mPa·s
298.15 K, 60600 kPa, Falling or rolling sphere viscometry	167.95 mPa·s
298.15 K, 70390 kPa, Falling or rolling sphere viscometry	189.46 mPa·s
298.15 K, 80180 kPa, Falling or rolling sphere viscometry	213.75 mPa·s
298.15 K, 90600 kPa, Falling or rolling sphere viscometry	242.18 mPa·s
298.15 K, 100230 kPa, Falling or rolling sphere viscometry	271.62 mPa·s
303.15 K, 100 kPa, Falling or rolling sphere viscometry	62.82 mPa·s and 62.63 mPa·s
303.15 K, 101.3 kPa, Concentric cylinders viscometry	62.26 mPa·s
313.15 K, 100 kPa, Falling or rolling sphere viscometry	41.27 mPa·s and 41.24 mPa·s
313.15 K, 101.3 kPa, Concentric cylinders viscometry	41.72 mPa·s
323.15 K, 100 kPa, Falling or rolling sphere viscometry	29.04 mPa·s [middle of 5 runs]
323.15 K, 101.3 kPa, Concentric cylinders viscometry	29.42 mPa·s
323.15 K, 10520 kPa, Falling or rolling sphere viscometry	32.31 mPa·s
323.15 K, 20600 kPa, Falling or rolling sphere viscometry	36.21 mPa·s
323.15 K, 29970 kPa, Falling or rolling sphere viscometry	40.16 mPa·s
323.15 K, 39910 kPa, Falling or rolling sphere viscometry	44.72 mPa·s
323.15 K, 50590 kPa, Falling or rolling sphere viscometry	50.06 mPa·s
323.15 K, 60550 kPa, Falling or rolling sphere viscometry	55.73 mPa·s
323.15 K, 70490 kPa, Falling or rolling sphere viscometry	61.77 mPa·s
323.15 K, 80450 kPa, Falling or rolling sphere viscometry	68.24 mPa·s
323.15 K, 90470 kPa, Falling or rolling sphere viscometry	75.36 mPa·s
323.15 K, 100400 kPa, Falling or rolling sphere viscometry	82.99 mPa·s
333.15 K, 100 kPa, Falling or rolling sphere viscometry	21.31 mPa·s and 21.3 mPa·s
333.15 K, 101.3 kPa, Concentric cylinders viscometry	21.64 mPa·s
343.15 K, 100 kPa, Falling or rolling sphere viscometry	16.14 mPa·s and 16.13 mPa·s
343.15 K, 101.3 kPa, Concentric cylinders viscometry	16.46 mPa·s
348.15 K, 100 kPa, Falling or rolling sphere viscometry	14.07 mPa·s and 14.06 mPa·s
348.15 K, 10850 kPa, Falling or rolling sphere viscometry	15.68 mPa·s
348.15 K, 11990 kPa, Falling or rolling sphere viscometry	15.82 mPa·s
348.15 K, 21760 kPa, Falling or rolling sphere viscometry	17.54 mPa·s
348.15 K, 29210 kPa, Falling or rolling sphere viscometry	18.8 mPa·s
348.15 K, 38020 kPa, Falling or rolling sphere viscometry	20.38 mPa·s
348.15 K, 49600 kPa, Falling or rolling sphere viscometry	22.9 mPa·s
348.15 K, 64630 kPa, Falling or rolling sphere viscometry	26.45 mPa·s
348.15 K, 73060 kPa, Falling or rolling sphere viscometry	28.44 mPa·s
348.15 K, 85040 kPa, Falling or rolling sphere viscometry	31.53 mPa·s
348.15 K, 102920 kPa, Falling or rolling sphere viscometry	36.8 mPa·s
353.15 K, 100 kPa, Falling or rolling sphere viscometry	12.73 mPa·s and 12.67 mPa·s
353.15 K, 101.3 kPa, Concentric cylinders viscometry	12.91 mPa·s
363.15 K, 101.3 kPa, Concentric cylinders viscometry	10.35 mPa·s

Conditions	electrical conductivity [S/m]	mass density
273.15 K	0.0741	1416.89 kg/m3 and 1416.94 kg/m3 and 1416.7 kg/m3
278.15 K	0.101	1412.1 kg/m3
283.15 K	0.134	1407.76 kg/m3 and 1407.82 kg/m3 and 1407.6 kg/m3
288.15 K	0.174	1403.39 kg/m3 and 1403.2 kg/m3
293.14 K	0.221	–
293.15 K	–	1398.92 kg/m3 [middle of 4 runs]
298.14 K	0.276	–
298.15 K	0.275	1394.51 kg/m3 and 1394.4 kg/m3
303.15 K	0.338	1390.1 kg/m3 and 1390.17 kg/m3 and 1390 kg/m3
313.15 K	0.486	1381.31 kg/m3 and 1381.38 kg/m3 and 1381.2 kg/m3
323.14 K	0.667	–
323.15 K	–	1372.58 kg/m3 and 1372.67 kg/m3 and 1372.5 kg/m3
333.15 K	0.879	1363.89 kg/m3 and 1363.97 kg/m3 and 1363.9 kg/m3
343.14 K	1.12	–
343.15 K	–	1355.26 kg/m3 and 1355.36 kg/m3 and 1355.3 kg/m3
353.15 K	1.39	1346.69 kg/m3 and 1346.78 kg/m3 and 1346.8 kg/m3
363.15 K	–	1338.16 kg/m3 and 1338.25 kg/m3 and 1338.4 kg/m3
